In patent US4738970A, “Benzimidazolyl-thio-tetrahydroquinolines and anti-peptic ulcer compositions containing the same” (Otsuka Pharmaceutical Co., Ltd., priority 1984, dated 1988) one finds IC50 data, which are given here for 32 compounds.

Each structure is given as a SMILES string.

The target of this test is T1, H^+ -K^+ -ATPase (Sus scrofa, UniProt P19156).
T1 construct: which was prepared from the stomach of swine; from tissue; host or cells: stomach of swine
T1 sequence (P19156 2-1034 limits assumed): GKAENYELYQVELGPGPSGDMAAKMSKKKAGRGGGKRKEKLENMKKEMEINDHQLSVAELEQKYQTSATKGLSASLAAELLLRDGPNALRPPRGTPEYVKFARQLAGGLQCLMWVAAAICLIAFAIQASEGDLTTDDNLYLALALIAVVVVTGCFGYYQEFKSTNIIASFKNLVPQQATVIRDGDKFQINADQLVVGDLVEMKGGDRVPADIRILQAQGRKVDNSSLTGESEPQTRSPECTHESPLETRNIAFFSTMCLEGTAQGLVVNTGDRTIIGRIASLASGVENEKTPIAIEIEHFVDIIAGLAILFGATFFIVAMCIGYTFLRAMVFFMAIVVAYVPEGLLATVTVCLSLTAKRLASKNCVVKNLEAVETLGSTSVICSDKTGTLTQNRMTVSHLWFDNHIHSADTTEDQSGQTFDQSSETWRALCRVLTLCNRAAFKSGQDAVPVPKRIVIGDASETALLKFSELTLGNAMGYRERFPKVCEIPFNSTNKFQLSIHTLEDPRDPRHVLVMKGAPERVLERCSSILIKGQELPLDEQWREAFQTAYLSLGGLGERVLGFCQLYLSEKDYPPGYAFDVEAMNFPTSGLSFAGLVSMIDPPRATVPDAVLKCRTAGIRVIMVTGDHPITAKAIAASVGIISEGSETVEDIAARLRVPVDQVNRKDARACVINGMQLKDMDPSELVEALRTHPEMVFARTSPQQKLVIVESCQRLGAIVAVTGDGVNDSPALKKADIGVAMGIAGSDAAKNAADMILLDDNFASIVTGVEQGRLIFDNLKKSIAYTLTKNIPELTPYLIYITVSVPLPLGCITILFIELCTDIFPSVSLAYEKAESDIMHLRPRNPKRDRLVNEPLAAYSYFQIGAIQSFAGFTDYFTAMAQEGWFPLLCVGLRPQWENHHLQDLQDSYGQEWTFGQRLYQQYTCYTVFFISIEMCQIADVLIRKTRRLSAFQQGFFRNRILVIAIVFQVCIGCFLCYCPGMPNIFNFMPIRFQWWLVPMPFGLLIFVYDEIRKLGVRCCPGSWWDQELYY
T1 sequence (P18434 whole entry partner): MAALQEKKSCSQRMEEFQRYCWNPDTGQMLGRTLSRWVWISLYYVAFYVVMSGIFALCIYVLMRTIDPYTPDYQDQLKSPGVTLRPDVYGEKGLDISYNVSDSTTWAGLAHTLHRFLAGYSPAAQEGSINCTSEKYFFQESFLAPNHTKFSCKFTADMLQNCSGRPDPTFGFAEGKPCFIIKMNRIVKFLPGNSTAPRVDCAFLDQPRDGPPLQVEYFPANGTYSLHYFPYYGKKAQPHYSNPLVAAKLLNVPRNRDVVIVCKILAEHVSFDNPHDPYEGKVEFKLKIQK
The experiment in a line: Inhibitory Effect Test for the Activity of H^+ -K^+ -ATPase. In kind it is biochemical. To be noted: H+-K+-ATPase from the stomach of swine; preincubation pH 6.1, room temperature 30 min; reaction pH 7.4, 37° C. 30 min; read-out: IC50 (50% inhibition dosage). The protocol:
H^+ -K^+ -ATPase (hydrogen-potassium-activated adenosine triphosphatase) (protein content: 10 mcg) which was prepared from the stomach of swine was added to PIPES-tris[buffer PIPES-tris(hydroxymethyl)-2-amino-1,3-propanediol buffer (pH=6.1) containing 2 mM of piperazine-N,N'-bis(2-ethanesulfonic acid)], then the resulting mixture was let allowed to stand at room temperature.
Each of the test compounds was dissolved in dimethylformamide, and the dimethylformamide solution was added to the above-mentioned H^+ -K^+ -ATPase buffer solution so as to adjust the final concentration of the test compound to 1.0%. Each of thus prepared mixture was reacted at room temperature for 30 minutes.
Next, the above-mentioned reaction mixture was divided into two portions, and to the one portion thereof was added 1 ml of 75 mM PIPES-tris buffer solution (pH=7.4) (containing 4 mM of MgCl2, 4 mM of Na2 ATP and 20 mM of KCl), on the other hand, to another portion of the reaction mixture was added 1 ml of 75 mM PIPES-tris buffer solution (pH=7.4) (containing 4 mM of MgCl2 and 4 mM of Na2 ATP), respectively. Each of these two series of sample solutions was separately reacted at 37° C. for 30 minutes. Then to each of these reaction mixtures was added 0.3 ml of 40% trichloroacetic acid to terminate the reaction, and was subjected to centrifugal separation at 3,000 rpm for 10 minutes to obtain the supernatent. Next, the inorganic phosphoric acid formed in the reaction mixture was determined by a method according to the article by C. H. Fiske and Y. Subbarow: J. Biol. Chem., Vol. 66, pages 375-400, (1925). The difference of the value obtained by substracting the quantity of inorganic phosphoric acid determined by using PIPES-tris buffer solution without containing 20 mM of KCl from the quantity of inorganic phosphoric acid determined by using PIPES-tris buffer solution containing 20 mM of KCl, was converted into as activity value of enzyme with respect to the unit protein and unit time.
Inhibitory rate (%) of each of the test compounds was obtained from the activity value of the enzyme at the respective dosages in the test groups and those of obtained from the control group, then IC50 (50% inhibition dosage of each of the test compounds) was calculated from the inhibitory rate (%).
Consider `CCOc1cc2[nH]c([S+]([O-])C3CCCc4cccnc43)nc2cc1F` (centres unmarked) [Test compound 37, 8-(5-Ethoxy-6-fluoro-2-benzimidazolyl)-sulfinyl-5,6,7,8-tetrahydroquinoline], for which the half-maximal inhibitory concentration (IC50) was 3400 nM.

With `COc1c(C)cnc2c1CCCC2[S+]([O-])c1nc2ccc(Cl)cc2[nH]1` (centres unmarked) [Test compound 50, 3-Methyl-4-methoxy-8-(5-chloro-2-benzimidazolyl)sulfinyl-5,6,7,8-tetrahydroquinoline], the 50% inhibitory concentration (IC50) is 180 nM. As to `Cc1cnc2c(c1)CCCC2[S+]([O-])c1nc2ccc(C)cc2[nH]1` (centres unmarked) [Test compound 16, 3-Methyl-8-(5-methyl-2-benzimidazolyl)-sulfinyl-5,6,7,8-tetrahydroquinolin], the IC50 was determined as 1100 nM. Regarding `COc1c(C)cnc2c1CCCC2[S+]([O-])c1nc2cc(F)c(F)cc2[nH]1` (centres unmarked) [Test compound 43, 3-Methyl-4-methoxy-8-(5,6-difluoro-2-benzimidazolyl)sulfinyl-5,6,7,8-tetrahydroquinoline], the half-inhibitory concentration (IC50) was 280 nM. For `C=CCOc1c(C)cnc2c1CCCC2[S+]([O-])c1nc2cc(C)c(C)cc2[nH]1` (centres unmarked) [Test compound 4, 4-Allyloxy-8-(5,6-dimethyl-2-benzimidazolyl)-sulfinyl-3-methyl-5,6,7,8-tetrahydroquinoline], the IC50 was 610 nM. With `COc1ccc2nc([S+]([O-])C3CCCc4ccc(Cl)nc43)[nH]c2c1` (centres unmarked) [Test compound 21, 2-Chloro-8-(5-methoxy-2-benzimidazolyl)-sulfinyl-5,6,7,8-tetrahydroquinoline], the half-maximal inhibitory concentration (IC50) stood at 2700 nM. As to `COc1ccc2nc([S+]([O-])C3CCCc4c3ncc(C)c4OC)[nH]c2c1` (centres unmarked) [Test compound 49, 3-Methyl-4-methoxy-8-(5-methoxy-2-benzimidazolyl)sulfinyl-5,6,7,8-tetrahydroquinoline], the concentration for half-maximal inhibition (IC50) worked out at 280 nM. For `C#CCOc1c(C)cnc2c1CCCC2[S+]([O-])c1nc2cc(C)c(C)cc2[nH]1` (centres unmarked) [Test compound 6, 8-(5,6-Dimethyl-2-benzimidazolyl)sulfinyl-3-methyl-4-propargyloxy-5,6,7,8-tetrahydroquinoline], the concentration for half-maximal inhibition (IC50) worked out at 460 nM. As for `COc1ccc2nc([S+]([O-])C3CCCc4cc(C)c(Cl)nc43)[nH]c2c1` (centres unmarked) [Test compound 22, 2-Chloro-3-methyl-8-(5-methoxy-2-benzimidazolyl)sulfinyl-5,6,7,8-tetrahydroquinoline], the IC50 was found to be 2100 nM. As to `C=CCOc1c(C)cnc2c1CCCC2[S+]([O-])c1nc2ccccc2[nH]1` (centres unmarked) [Test compound 1, 4-Allyloxy-8-(2-benzimidazolyl)sulfinyl-3-methyl-5,6,7,8-tetrahydroquinoline], the half-inhibitory concentration (IC50) amounted to 740 nM. As for `C=CCOc1c(C)cnc2c1CCCC2[S+]([O-])c1nc2cc(Cl)c(Cl)cc2[nH]1` (centres unmarked) [Test compound 5, 4-Allyloxy-8-(5,6-dichloro-2-benzimidazolyl)-sulfinyl-3-methyl-5,6,7,8-tetrahydroquinoline], the figure is 310 nM.

Consider `C=CCOc1c(C)cnc2c1CCCC2[S+]([O-])c1nc2ccc(F)cc2[nH]1` (centres unmarked) [Test compound 11, 4-Allyloxy-8-(5-fluoro-2-benzimidazolyl)-sulfinyl-3-methyl-5,6,7,8-tetrahydroquinoline], for which the IC50 is 730 nM. Take `COc1c(C)cnc(C[S+]([O-])c2nc3cnccc3[nH]2)c1C` (centres unmarked) [Test compound 46, 2-[(3,5-Dimethyl-4-methoxy-2-pyridyl)-methylsulfinyl]imidazo[4,5-c]pyridine]: the IC50 is 29200 nM. Take `COc1c(C)cnc2c1CCCC2[S+]([O-])c1nc2cc(C)c(C)cc2[nH]1` (centres unmarked) [Test compound 38, 3-Methyl-4-methoxy-8-(5,6-dimethyl-2-benzimidazolyl)sulfinyl-5,6,7,8-tetrahydroquinoline]: the IC50 came to 340 nM. For the compound `Cc1cnc2c(c1)CCCC2[S+]([O-])c1nc2cc(C)c(C)cc2[nH]1` (centres unmarked) [Test compound 53, 3-Methyl-8-(5,6-dimethyl-2-benzimidazolyl)-sulfinyl-5,6,7,8-tetrahydroquinoline], the IC50 worked out at 580 nM. Turning to `O=[N+]([O-])c1ccc2nc([S+]([O-])C3CCCc4cccnc43)[nH]c2c1` (centres unmarked) [Test compound 31, 8-(5-Nitro-2-benzimidazolyl)sulfinyl-5,6,7,8-tetrahydroquinoline], the half-maximal inhibitory concentration (IC50) amounted to 2900 nM. To `COc1c(C)cnc2c1CCCC2[S+]([O-])c1nc2ccc(F)cc2[nH]1` (centres unmarked) [Test compound 34, 3-Methyl-4-methoxy-8-(5-fluoro-2-benzimidazolyl)sulfinyl-5,6,7,8-tetrahydroquinoline] belongs 220 nM; to `COc1ccnc2c1CCCC2[S+]([O-])c1nc2ccc(F)cc2[nH]1` (centres unmarked) [Test compound 51, 4-Methoxy-8-(5-fluoro-2-benzimidazolyl)-sulfinyl-5,6,7,8-tetrahydroquinoline], 99 nM. Turning to `COc1ccc2nc([S+]([O-])C3CCCc4ccc(O)nc43)[nH]c2c1` (centres unmarked) [Test compound 29, 2-Hydroxy-8-(5-methoxy-2-benzimidazolyl)-sulfinyl-5,6,7,8-tetrahydroquinoline], the concentration for half-maximal inhibition (IC50) turned out to be 2300 nM. As to `Cc1cnc2c(c1)CCCC2[S+]([O-])c1nc2ccc(F)cc2[nH]1` (centres unmarked) [Test compound 40, 3-Methyl-8-(5-fluoro-2-benzimidazolyl)-sulfinyl-5,6,7,8-tetrahydroquinoline], the half-inhibitory concentration (IC50) was 1900 nM. Take `COc1ccc2nc([S+]([O-])C3CCCc4cccnc43)[nH]c2c1` (centres unmarked) [Test compound 23, 8-(5-Methoxy-2-benzimidazolyl)sulfinyl-5,6,7,8-tetrahydroquinoline]: the 50% inhibitory concentration (IC50) is 1900 nM. As for `COc1c(C)cnc2c1CCCC2[S+]([O-])c1nc2cc(Cl)c(Cl)cc2[nH]1` (centres unmarked) [Test compound 41, 3-Methyl-4-methoxy-8-(5,6-dichloro-2-benzimidazolyl)sulfinyl-5,6,7,8-tetrahydroquinoline], the figure is 99 nM; as for `COCCOc1c(C)cnc2c1CCCC2[S+]([O-])c1nc2ccccc2[nH]1` (centres unmarked) [Test compound 9, 8-(2-Benzimidazolyl)sulfinyl-4-(2-methoxyethoxy)-3-methyl-5,6,7,8-tetrahydroquinoline], 840 nM. `COc1cc2nc([S+]([O-])C3CCCc4cccnc43)[nH]c2cc1OC` (centres unmarked) [Test compound 30, 8-(5,6-Dimethoxy-2-benzimidazolyl)sulfinyl-5,6,7,8-tetrahydroquinoline]: the IC50 came to 930 nM. With `Cc1cnc2c(c1)C([S+]([O-])c1nc3ccc(C(F)(F)F)cc3[nH]1)CCC2` (centres unmarked) [Test compound 39, 3-Methyl-5-(5-trifluoromethyl-2-benzimidazolyl)sulfinyl-5,6,7,8-tetrahydroquinoline], the half-inhibitory concentration (IC50) worked out at 2980 nM.

On to `COc1c(C)cnc2c1CCCC2[S+]([O-])c1nc2ccccc2[nH]1` (centres unmarked) [Test compound 35, 3-Methyl-4-methoxy-8-(2-benzimidazolyl)-sulfinyl-5,6,7,8-tetrahydroquinoline], for which the IC50 is 250 nM. To `Cc1cnc2c(c1)CCCC2[S+]([O-])c1nc2ccc(C(F)(F)F)cc2[nH]1` (centres unmarked) [Test compound 27, 3-Methyl-8-(5-trifluoromethyl-2-benzimidazolyl)sulfinyl-5,6,7,8-tetrahydroquinoline] belongs 1500 nM; to `COc1ccc2nc([S+]([O-])C3CCCc4ccc(C)nc43)[nH]c2c1` (centres unmarked) [Test compound 14, 2-Methyl-8-(5-methoxy-2-benzimidazolyl)-sulfinyl-5,6,7,8-tetrahydroquinoline], 1500 nM; to `COc1cc2nc([S+]([O-])C3CCCc4cc(C)cnc43)[nH]c2cc1OC` (centres unmarked) [Test compound 19, 3-Methyl-8-(5,6-dimethoxy-2-benzimidazolyl)-sulfinyl-5,6,7,8-tetrahydroquinoline], 3100 nM.

In the case of `Cc1cnc2c(c1)CCCC2[S+]([O-])c1nc2ccccc2[nH]1` (centres unmarked) [Test compound 15, 3-Methyl-8-(2-benzimidazolyl)sulfinyl-5,6,7,8-tetrahydroquinoline], the IC50 was 1800 nM. Consider `Cc1cccc2nc([S+]([O-])C3CCCc4cccnc43)[nH]c12` (centres unmarked) [Test compound 33, 8-(4-Methyl-2-benzimidazolyl)sulfinyl-5,6,7,8-tetrahydroquinoline], for which the half-maximal inhibitory concentration (IC50) was found to be 2600 nM. For `COc1ccnc2c1CCCC2[S+]([O-])c1nc2ccc(C(F)(F)F)cc2[nH]1` (centres unmarked) [Test compound 25, 4-Methoxy-8-(5-trifluoromethyl-2-benzimidazolyl)sulfinyl-5,6,7,8-tetrahydroquinoline], the IC50 turned out to be 2900 nM.

Broadly, the IC50 is the concentration at which inhibition is half-maximal.
